Experimental findings from patent US9650379B2 (CHONG KUN DANG PHARMACEUTICAL CORP., priority 2013, dated 2017) are described below.

One assay deals with T1, HDAC6 human recombinant (Homo sapiens, UniProt Q9UBN7).
T1 construct: purchased Calbiochem 382180
T1 sequence (Q9UBN7 1-1215): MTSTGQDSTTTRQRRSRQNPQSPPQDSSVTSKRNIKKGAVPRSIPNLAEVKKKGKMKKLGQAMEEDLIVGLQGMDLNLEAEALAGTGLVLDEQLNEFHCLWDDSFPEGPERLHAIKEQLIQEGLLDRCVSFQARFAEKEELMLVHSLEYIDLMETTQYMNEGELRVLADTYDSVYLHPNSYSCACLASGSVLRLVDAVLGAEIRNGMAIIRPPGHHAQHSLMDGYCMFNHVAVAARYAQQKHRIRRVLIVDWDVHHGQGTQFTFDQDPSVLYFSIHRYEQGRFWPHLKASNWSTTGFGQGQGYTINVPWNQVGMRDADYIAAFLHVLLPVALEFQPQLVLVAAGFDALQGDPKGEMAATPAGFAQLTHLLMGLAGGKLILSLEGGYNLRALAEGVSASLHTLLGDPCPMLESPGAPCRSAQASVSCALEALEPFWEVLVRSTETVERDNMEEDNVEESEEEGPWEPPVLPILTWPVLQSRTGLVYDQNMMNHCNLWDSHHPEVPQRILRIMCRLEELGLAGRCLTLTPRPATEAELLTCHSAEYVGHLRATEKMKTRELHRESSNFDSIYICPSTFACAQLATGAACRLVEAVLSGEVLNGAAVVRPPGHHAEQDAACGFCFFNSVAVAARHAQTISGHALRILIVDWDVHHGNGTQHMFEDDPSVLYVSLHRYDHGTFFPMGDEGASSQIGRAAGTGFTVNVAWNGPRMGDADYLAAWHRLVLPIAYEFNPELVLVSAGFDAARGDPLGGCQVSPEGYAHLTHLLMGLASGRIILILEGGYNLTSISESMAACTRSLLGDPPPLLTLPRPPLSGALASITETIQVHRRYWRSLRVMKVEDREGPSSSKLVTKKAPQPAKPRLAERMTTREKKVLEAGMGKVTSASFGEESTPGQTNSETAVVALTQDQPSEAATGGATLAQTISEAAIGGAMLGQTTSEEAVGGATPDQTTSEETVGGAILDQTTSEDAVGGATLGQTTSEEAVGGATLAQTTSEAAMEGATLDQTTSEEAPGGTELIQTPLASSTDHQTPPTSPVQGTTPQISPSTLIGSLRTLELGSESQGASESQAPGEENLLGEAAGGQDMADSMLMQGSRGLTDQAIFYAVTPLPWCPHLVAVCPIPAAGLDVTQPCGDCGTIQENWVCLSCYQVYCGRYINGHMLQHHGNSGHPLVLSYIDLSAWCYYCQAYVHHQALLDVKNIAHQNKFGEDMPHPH
Nature of the assay: Inhibition of HDAC6 activity (fluorimetric assay). The assay is classed as biochemical. The settings on record: test concentrations 0.1, 1, 10, 100 and 1000 nM; 37° C., 60 minutes. The protocol:
(§1) Assays were performed using a HDAC1 fluorimetric drug discovery assay kit (Enzolifesciences: BML-AK511) and a HDAC6 human recombinant (Calbiochem: 382180). The assay mixture of the kit was treated with a test compound at concentrations of 100, 1000 and 10000 nM for HDAC1 assay and concentrations of 0.1, 1, 10, 100 and 1000 nM for HDAC6 assay. The treated assay mixture was allowed to react at 37° C. for 60 minutes, and then was treated with a developer and allowed to stand at 37° C. for 30 minutes, followed by quantification of the fluorescence.

Another assay deals with T2, HDAC1 (Homo sapiens, UniProt Q13547).
T2 construct: purchased Enzolifesciences BML-AK511
Kind of assay: Inhibition of HDAC1 activity (HDAC1 fluorimetric drug discovery assay kit). The format is biochemical. The following applies: test concentrations 100, 1000 and 10000 nM; 37° C., 60 minutes. The protocol: as §1

The IC50 is the concentration at which inhibition is half-maximal.

T2 sequence (Q13547 whole entry): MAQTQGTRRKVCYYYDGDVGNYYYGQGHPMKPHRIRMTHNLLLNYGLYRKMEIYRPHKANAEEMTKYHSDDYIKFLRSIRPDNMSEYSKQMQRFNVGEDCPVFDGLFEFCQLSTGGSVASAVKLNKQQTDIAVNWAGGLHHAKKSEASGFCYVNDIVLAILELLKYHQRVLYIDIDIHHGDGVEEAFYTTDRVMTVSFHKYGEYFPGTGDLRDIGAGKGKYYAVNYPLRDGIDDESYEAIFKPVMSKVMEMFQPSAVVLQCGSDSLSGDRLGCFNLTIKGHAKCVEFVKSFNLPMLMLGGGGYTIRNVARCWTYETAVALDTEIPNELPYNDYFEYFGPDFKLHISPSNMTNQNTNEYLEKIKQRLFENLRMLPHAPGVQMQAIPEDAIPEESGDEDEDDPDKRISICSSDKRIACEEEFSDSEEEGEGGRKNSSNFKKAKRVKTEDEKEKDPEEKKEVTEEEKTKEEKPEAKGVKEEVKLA

As for `O=C(NO)c1ccc(Cn2ccc3c(N4CCC5(CCN(Cc6cccnc6)C5)CC4)ccnc32)cc1` [Compound 1022, N-hydroxy-4-((4-(2-(pyridin-3-ylmethyl)-2,8-diazaspiro[4.5]decan-8-yl)-1H-pyrrolo[2,3-b]pyridin-1-yl)methyl)benzamide], the half-maximal inhibitory concentration (IC50) at HDAC6 human recombinant is 5.8 nM; at HDAC1, 70 nM. In the same order, the values of `CC(O)(CO)CN1CCC(c2cnc3c(ccn3Cc3ccc(C(=O)NO)cc3)c2)CC1` (stereo not shown) [Compound 946, 4-((5-(1-(2,3-dihydroxy-2-methylpropyl)piperidin-4-yl)-1H-pyrrolo[2,3-b]pyridin-1-yl)methyl)-N-hydroxybenzamide] are 2 nM and 490 nM. In the same order, the values of `COc1ccc(CN2CCC(c3ccnc4c3ccn4Cc3ccc(C(=O)NO)cc3)CC2)cc1` [Compound 959, N-hydroxy-4-((4-(1-(4-methoxybenzyl)piperidin-4-yl)-1H-pyrrolo[2,3-b]pyridin-1-yl)methyl)benzamide] are 12 nM and 900 nM.

As to `CC(C)(C(=O)O)N1CCC(c2ccnc3c2ccn3Cc2ccc(C(=O)NO)cc2)CC1` [Compound 1028, 2-(4-(1-(4-(hydroxycarbamoyl)benzyl)-1H-pyrrolo[2,3-b]pyridin-4-yl)piperidin-1-yl)-2-methylpropionic acid], the 50% inhibitory concentration (IC50) was 1.4 nM on HDAC6 human recombinant and 420 nM at HDAC1. In the same order, the values of `O=C(NO)c1ccc(Cn2ccc3c(-c4ccc(CN5CCOCC5)cc4)ccnc32)cc1` [Compound 762, N-hydroxy-4-((4-(4-(morpholinomethyl)phenyl)-1H-pyrrolo[2,3-b]pyridin-1-yl)methyl)benzamide] are 10 nM and 780 nM. In the same order, the values of `CN1CCN(Cc2ccc(CN3CCC(c4ccnc5c4ccn5Cc4ccc(C(=O)NO)cc4)CC3)cc2)CC1` [Compound 988, N-hydroxy-4-((4-(1-(4-((4-methylpiperazin-1-yl)methyl)benzyl)piperidin-4-yl)-1H-pyrrolo[2,3-b]pyridin-1-yl)methyl)benzamide] are 5.9 nM and 290 nM. For `O=C(NO)c1ccc(Cn2ccc3cc(N4CCN(Cc5ccccc5)CC4)cnc32)cc1` [Compound 806, 4-((5-(4-benzylpiperazin-1-yl)-1H-pyrrolo[2,3-b]pyridin-1-yl)methyl)-N-hydroxybenzamide], in that order: 6.7 nM and 680 nM.

Take `O=C(NO)c1ccc(Cn2ccc3cc(C4=CCOCC4)cnc32)cc1` [Compound 629, 4-((5-(3,6-dihydro-2H-pyran-4-yl)-1H-pyrrolo[2,3-b]pyridin-1-yl)methyl)-N-hydroxybenzamide]: the half-inhibitory concentration (IC50) was found to be 4 nM on HDAC6 human recombinant and 1050 nM against HDAC1. For `O=C(NO)c1ccc(Cn2ccc3cc(N4CCN(Cc5ccc(F)cc5)CC4)cnc32)cc1` [Compound 852, 4-((5-(4-(4-fluorobenzyl)piperazin-1-yl)-1H-pyrrolo[2,3-b]pyridin-1-yl)methyl)-N-hydroxybenzamide], in that order: 11.5 nM and 2210 nM. For `CC(C)(C)OC(=O)N1CC=C(c2ccc3ccn(Cc4ccc(C(=O)NO)cc4)c3n2)CC1` [Compound 744, tert-butyl 4-(1-(4-(hydroxycarbamoyl)benzyl)-1H-pyrrolo[2,3-b]pyridin-6-yl)-5,6-dihydropyridine-1(2H)-carboxylate], the half-inhibitory concentration (IC50) at HDAC6 human recombinant worked out at 62 nM; against HDAC1, 1890 nM. Consider `COc1ccc(CN2CC3(CCN(c4cnc5c(ccn5Cc5ccc(C(=O)NO)cc5)c4)CC3)C2)cc1` [Compound 1125, N-hydroxy-4-((5-(2-(4-methoxybenzyl)-2,7-diazaspiro[3.5]nonan-7-yl)-1H-pyrrolo[2,3-b]pyridin-1-yl)methyl)benzamide], for which the IC50 at HDAC6 human recombinant stood at 1.8 nM.

Regarding `COc1ccc(CN2CCC(c3cnc4c(ccn4Cc4ccc(C(=O)NO)cc4)c3)CC2)cn1` [Compound 1098, N-hydroxy-4-((5-(1-((6-methoxypyridin-3-yl)methyl)piperidin-4-yl)-1H-pyrrolo[2,3-b]pyridin-1-yl)methyl)benzamide], the half-inhibitory concentration (IC50) at HDAC6 human recombinant came out at 5230 nM.
